Results taken from patent publication US6958352B2, “Compounds for inhibiting insulin secretion and methods related thereto” (SmithKline Beecham Corporation, priority 2002, dated 2005).
Where two headings read alike, the source gives them in different places.

Biological target: T1, mitochondrial calcium/sodium antiporter (Rattus norvegicus, UniProt Q6AXS0)
T1 sequence (Q6AXS0 1-585): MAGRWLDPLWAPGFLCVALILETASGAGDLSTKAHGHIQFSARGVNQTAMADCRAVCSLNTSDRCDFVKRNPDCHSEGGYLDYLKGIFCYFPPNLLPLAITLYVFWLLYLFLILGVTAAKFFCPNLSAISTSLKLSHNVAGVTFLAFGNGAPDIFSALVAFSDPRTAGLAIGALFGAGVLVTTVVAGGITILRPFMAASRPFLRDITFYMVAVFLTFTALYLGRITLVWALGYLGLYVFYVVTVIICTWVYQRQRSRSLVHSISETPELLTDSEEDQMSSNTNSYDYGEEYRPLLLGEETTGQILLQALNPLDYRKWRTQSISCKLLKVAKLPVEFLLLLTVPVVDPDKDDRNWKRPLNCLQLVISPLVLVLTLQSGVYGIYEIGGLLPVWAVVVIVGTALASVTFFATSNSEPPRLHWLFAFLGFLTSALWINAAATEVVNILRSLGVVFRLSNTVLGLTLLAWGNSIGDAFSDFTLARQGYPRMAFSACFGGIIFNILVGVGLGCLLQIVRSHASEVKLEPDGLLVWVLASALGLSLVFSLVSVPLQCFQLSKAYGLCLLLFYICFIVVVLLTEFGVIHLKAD
Assay: Inhibition of mitochondrial calcium/sodium antiporter activity (NaCl-induced mitochondrial calcium efflux, calcium green 5N fluorescence)
Type: cell-based
Details: digitonin-permeabilized INS-1 cells, 20 mM NaCl
Procedure: INS-1 rat insulinoma cells (see Example 16) were harvested by trypsinization, washed and resuspended at 10×10^6 cells/ml in assay buffer (250 mM sucrose, 10 mM HEPES, 2.5 mM K2HPO4, 5 mM succinate, pH 7.4) containing 0.007% digitonin, 60 μM CaCl2 and 0.05 μM calcium green 5N (Molecular Probes, Inc., Eugene, Oreg.). After a five-minute calcium loading incubation, ruthenium red (1 μM; Sigma, St. Louis, Mo.) was added to block further calcium uptake by mitochondria. Cell suspensions were dispensed into 96-well plates (100 μl per well, 1×10^6 cells per well) and candidate agents (i.e., candidate mitochondrial calcium/sodium antiporter inhibitors) were added to some sets of triplicate wells at concentrations of 1, 10 or 100 μM, while other sets of wells provided appropriate control conditions (e.g., buffer and vehicle controls). Baseline fluorescence measurements were made using a multiwell plate fluorimeter (F-MAX™, Molecular Devices Corp., Sunnyvale, Calif.; or PolarStar™, BMG Labtechnologies, Inc., Durham, N.C.) according to the manufacturer's instructions. Calcium efflux from mitochondria was then induced by adding NaCl to all wells to achieve a final concentration of 20 mM, and the rate of change in fluorescence in each well was monitored […] for two minutes and quantified using software included with the plate reader.

[1] = Table 2, preferred compounds, read-out: IC50 ≦ 10 μM
[2] = Table 3, more preferred compounds, read-out: IC50 ≦ 1 μM

Row | SMILES | IC50 [1] [µM] | IC50 [2] [µM]
1 | COC(=O)CSC(c1ccccc1C)c1cc(Cl)ccc1N (stereo not drawn) [Compound 11aa] | ≤ 10 | ≤ 1
2 | COC(=O)CSC(c1cc(Cl)ccc1N)C1CCCCC1 (stereo not drawn) [Compound 11ak] | – | ≤ 1
3 | COC(=O)CSC(CC(C)C)c1cc(Cl)ccc1N (stereo not drawn) [Compound 11am] | ≤ 10 | –
4 | COC(=O)CSC(CCCOCc1ccccc1)c1cc(Cl)ccc1N (stereo not drawn) [Compound 11an] | ≤ 10 | –
5 | COC(=O)CSC(c1cc(Cl)ccc1NC(=O)C(F)(F)F)c1c(C)cccc1C (stereo not drawn) [Compound 11ba] | ≤ 10 | ≤ 1
6 | COC(=O)CSC(c1cc(Cl)ccc1N)c1sccc1C (stereo not drawn) [Compound 11c] | ≤ 10 | –
7 | COC(=O)CSC(c1cc(C)cc(C)c1)c1cc(Cl)ccc1N (stereo not drawn) [Compound 11d] | ≤ 10 | ≤ 1
8 | COC(=O)CSC(c1nc2ccccc2s1)c1cc(Cl)ccc1N (stereo not drawn) [Compound 11f] | ≤ 10 | –
9 | COC(=O)CSC(c1cc(Cl)ccc1N)c1cccn1C (stereo not drawn) [Compound 11h] | ≤ 10 | ≤ 1
10 | COC(=O)CSC(c1cccc(C)c1)c1cc(Cl)ccc1N (stereo not drawn) [Compound 11i] | ≤ 10 | –
11 | COC(=O)CSC(c1cc(Cl)ccc1N)c1cccc(C)c1C (stereo not drawn) [Compound 11k] | ≤ 10 | –
12 | COC(=O)CSC(c1ccc(C)c(C)c1)c1cc(Cl)ccc1N (stereo not drawn) [Compound 11l] | ≤ 10 | –
13 | COC(=O)CSC(c1cc(C)ccc1C)c1cc(Cl)ccc1N (stereo not drawn) [Compound 11m] | ≤ 10 | –
14 | COC(=O)CSC(c1ccccc1N)c1ccccc1Cl (stereo not drawn) [Compound 11r] | ≤ 10 | –
15 | COC(=O)CSC(c1cc(Cl)ccc1N)c1ccccc1Cl (stereo not drawn) [Compound 11s] | ≤ 10 | ≤ 1
16 | COC(=O)CSC(c1ccccc1)c1cc([N+](=O)[O-])ccc1N (stereo not drawn) [Compound 11t] | ≤ 10 | –
17 | COC(=O)CSC(c1nccs1)c1cc(Cl)ccc1N (stereo not drawn) [Compound 11u] | ≤ 10 | –
18 | COC(=O)CSC(c1ccc(C)cc1C)c1cc(Cl)ccc1N (stereo not drawn) [Compound 11w] | ≤ 10 | –
19 | COC(=O)CSC(c1ccccc1)c1cc(Cl)ccc1N (stereo not drawn) [Compound 11x] | ≤ 10 | –
20 | CNC(=O)CSC(c1cc(Cl)ccc1N)c1ccccc1Cl (stereo not drawn) [Compound 13a] | ≤ 10 | –
21 | O=C(CSC(c1cc(Cl)ccc1O)c1ccccc1Cl)N1CCCCC1 (stereo not drawn) [Compound 13ag] | ≤ 10 | –
22 | O=C(CSC(c1ccccc1)c1cc(Cl)ccc1O)N1CCCCC1 (stereo not drawn) [Compound 13ai] | ≤ 10 | –
23 | CN(C)C(=O)CSC(c1cc(Cl)ccc1N)c1ccccc1Cl (stereo not drawn) [Compound 13b] | ≤ 10 | ≤ 1

Row | SMILES | IC50 [1] [µM] | IC50 [2] [µM]
24 | Nc1ccc(Cl)cc1C(SCC(=O)NCCc1ccccc1)c1ccccc1Cl (stereo not drawn) [Compound 13c] | ≤ 10 | ≤ 1
25 | Nc1ccc(Cl)cc1C(SCC(=O)N1CCCCC1)c1ccccc1Cl (stereo not drawn) [Compound 13d] | ≤ 10 | ≤ 1
26 | Nc1ccc(Cl)cc1C(SCC(=O)NCCO)c1ccccc1Cl (stereo not drawn) [Compound 13e] | ≤ 10 | –
27 | Nc1ccc(Cl)cc1C(SCC(=O)NCc1ccccc1)c1ccccc1Cl (stereo not drawn) [Compound 13f] | ≤ 10 | ≤ 1
28 | CC(=O)NCCNC(=O)CSC(c1cc(Cl)ccc1N)c1ccccc1Cl (stereo not drawn) [Compound 13g] | ≤ 10 | ≤ 1
29 | Nc1ccc(Cl)cc1C(SCC(=O)NC1CCCCC1)c1ccccc1Cl (stereo not drawn) [Compound 13h] | ≤ 10 | ≤ 1
30 | Nc1ccc(Cl)cc1C(SCC(=O)NCC(c1ccccc1)c1ccccc1)c1ccccc1Cl (stereo not drawn) [Compound 13i] | ≤ 10 | ≤ 1
31 | Nc1ccc(Cl)cc1C(SCC(=O)N1CCN(c2ccccc2)CC1)c1ccccc1Cl (stereo not drawn) [Compound 13j] | ≤ 10 | ≤ 1
32 | CCCNC(=O)CSC(c1cc(Cl)ccc1N)c1ccccc1Cl (stereo not drawn) [Compound 13k] | ≤ 10 | ≤ 1
33 | CCCCCCNC(=O)CSC(c1cc(Cl)ccc1N)c1ccccc1Cl (stereo not drawn) [Compound 13l] | ≤ 10 | ≤ 1
34 | COCCCNC(=O)CSC(c1cc(Cl)ccc1N)c1ccccc1Cl (stereo not drawn) [Compound 13m] | ≤ 10 | ≤ 1
35 | Nc1ccc(Cl)cc1C(SCC(=O)NCC1CCCCC1)c1ccccc1Cl (stereo not drawn) [Compound 13n] | ≤ 10 | ≤ 1
36 | C#CCNC(=O)CSC(c1cc(Cl)ccc1N)c1ccccc1Cl (stereo not drawn) [Compound 13o] | ≤ 10 | ≤ 1
37 | Nc1ccc(Cl)cc1C(SCC(=O)NCCCn1ccnc1)c1ccccc1Cl (stereo not drawn) [Compound 13p] | ≤ 10 | ≤ 1
38 | CN(C)CCCNC(=O)CSC(c1cc(Cl)ccc1N)c1ccccc1Cl (stereo not drawn) [Compound 13q] | ≤ 10 | –
39 | Nc1ccc(Cl)cc1C(SCC(=O)NC1CC1)c1ccccc1Cl (stereo not drawn) [Compound 13r] | ≤ 10 | ≤ 1
40 | Nc1ccc(Cl)cc1C(SCC(=O)NCCc1ccc(O)cc1)c1ccccc1Cl (stereo not drawn) [Compound 13s] | ≤ 10 | ≤ 1
41 | Nc1ccc(Cl)cc1C(SCC(=O)NCCc1ccc(O)c(I)c1)c1ccccc1Cl (stereo not drawn) [Compound 13t] | ≤ 10 | –
42 | Nc1ccc(Cl)cc1C(SCC(=O)NCCc1cc(I)c(O)c(I)c1)c1ccccc1Cl (stereo not drawn) [Compound 13u] | ≤ 10 | ≤ 1
43 | NCCOCCOCCNC(=O)CSC(c1cc(Cl)ccc1N)c1ccccc1Cl (stereo not drawn) [Compound 13v] | ≤ 10 | ≤ 1
44 | Nc1ccc(Cl)cc1C(SCc1nc(-c2ccc(F)cc2)no1)c1ccccc1Cl (stereo not drawn) [Compound 14a] | ≤ 10 | –
45 | Cc1noc(CSC(c2cc(Cl)ccc2N)c2ccccc2Cl)n1 (stereo not drawn) [Compound 14b] | ≤ 10 | ≤ 1
46 | Cc1cc(C)cc(C(SCc2nc(C)no2)c2cc(Cl)ccc2N)c1 (stereo not drawn) [Compound 14d] | ≤ 10 | –

Row | SMILES | IC50 [1] [µM] | IC50 [2] [µM]
47 | Cc1noc(CSC(c2cccs2)c2cc(Cl)ccc2N)n1 (stereo not drawn) [Compound 14g] | ≤ 10 | ≤ 1
48 | Cc1noc(CSC(c2cc(Cl)ccc2N)c2cccn2C)n1 (stereo not drawn) [Compound 14h] | ≤ 10 | ≤ 1
49 | Cc1cccc(C(SCc2nc(C)no2)c2cc(Cl)ccc2N)c1 (stereo not drawn) [Compound 14i] | ≤ 10 | –
50 | Cc1noc(CSC(c2cc(Cl)ccc2N)c2cccc(C)c2C)n1 (stereo not drawn) [Compound 14k] | ≤ 10 | ≤ 1
51 | Cc1noc(CSC(c2ccc(C)c(C)c2)c2cc(Cl)ccc2N)n1 (stereo not drawn) [Compound 14l] | ≤ 10 | –
52 | Cc1ccc(C)c(C(SCc2nc(C)no2)c2cc(Cl)ccc2N)c1 (stereo not drawn) [Compound 14m] | ≤ 10 | –
53 | Cc1ccc(C)c(C(SCc2nc(C)no2)c2cc(Cl)ccc2NC(=O)C(F)(F)F)c1 (stereo not drawn) [Compound 14ma] | ≤ 10 | –
54 | Cc1noc(CSC(c2ccccc2)c2cc([N+](=O)[O-])ccc2N)n1 (stereo not drawn) [Compound 14t] | ≤ 10 | –
55 | CCSC(c1cc(Cl)ccc1N)c1ccccc1Cl (stereo not drawn) [Compound 15c] | ≤ 10 | ≤ 1
56 | Nc1ccc(Cl)cc1C(SCCO)c1ccccc1Cl (stereo not drawn) [Compound 15d] | ≤ 10 | ≤ 1
57 | COC(=O)CCSC(c1cc(Cl)ccc1N)c1ccccc1Cl (stereo not drawn) [Compound 15e] | ≤ 10 | ≤ 1
58 | Nc1ccc(Cl)cc1C(Sc1ccccn1)c1ccccc1Cl (stereo not drawn) [Compound 15f] | ≤ 10 | ≤ 1
59 | Nc1ccc(Cl)cc1C(SCC(F)(F)F)c1ccccc1Cl (stereo not drawn) [Compound 15i] | ≤ 10 | ≤ 1
60 | Nc1ccc(Cl)cc1C(SCCCO)c1ccccc1Cl (stereo not drawn) [Compound 15k] | ≤ 10 | ≤ 1
61 | Nc1ccc(Cl)cc1C(SCCNC(=O)c1ccccc1)c1ccccc1Cl (stereo not drawn) [Compound 16a] | ≤ 10 | ≤ 1
62 | COc1ccc(C(=O)NCCSC(CC(C)C)c2cc(Cl)ccc2N)cc1OC (stereo not drawn) [Compound 16aa] | – | ≤ 1
63 | COc1cc(C(=O)NCCSC(c2cc(Cl)ccc2N)C(C)C)cc(OC)c1OC (stereo not drawn) [Compound 16ab] | – | ≤ 1
64 | COc1cc(C(=O)NCCSC(CC(C)C)c2cc(Cl)ccc2N)cc(OC)c1OC (stereo not drawn) [Compound 16ac] | – | ≤ 1
65 | COc1ccc(C(=O)NCCSC(c2cc(F)ccc2N)C2CCCCC2)cc1OC (stereo not drawn) [Compound 16ad] | – | ≤ 1
66 | COc1ccc(C(=O)NCCSC(c2ccccc2N)C2CCCCC2)cc1OC (stereo not drawn) [Compound 16ae] | – | ≤ 1
67 | COc1ccc(CC(=O)NCCSC(c2cc(Cl)ccc2N)c2ccccc2Cl)cc1OC (stereo not drawn) [Compound 16b] | ≤ 10 | ≤ 1
68 | Nc1ccc(Cl)cc1C(SCCNC(=O)c1ccc(Cl)cc1Cl)c1ccccc1Cl (stereo not drawn) [Compound 16c] | ≤ 10 | –
69 | COc1ccc(C(=O)NCCSC(c2cc(Cl)ccc2N)c2ccccc2Cl)cc1OC (stereo not drawn) [Compound 16d] | ≤ 10 | ≤ 1
